Source: US5578619A, “Alkoxy-substituted dihydrobenzopyran-2-sulfonimides” (priority 1995, dated 1996)
pIC50: −log10 of the molar value.

Key:
[1] = test system: Human neutrophils (LTB4 chemotaxis); assay: Modified Boyden Chamber Chemotaxis (LTB4-induced neutrophil chemotaxis); assay type: cell-based; details: 3×10^-8 M LTB4, 40-90 minute incubation at 37° C.
Text: (§1) Neutrophils were purified from venous blood of normal human donors using standard techniques of dextran sedimentation, centrifugation on Ficoll-paque® (Pharmacia) or Histopaque® sterile solution (Sigma) and hypotonic lysis of erythrocytes (Boyum, A., Isolation of Leukocytes From Human Blood: Further Observations. Scand. J. Lab. Clin. Invest., 21 (Suppl. 97): 31, 1968). The purity of isolated neutrophils was >95%.
Human neutrophils were isolated from citrated peripheral blood using standard techniques of dextran sedimentation, followed by centrifugation on Histopaque® sterile solution (Sigma) or Ficoll-paque® (Pharmacia) and hypotonic lysis of erythrocytes. A final cell suspension of 3.4×10^6 neutrophils/ml of HEPES-buffered Hanks' balanced salt solution (HBSS, pH 7.3) was added to the upper well (0.8 ml) of a modified Boyden chamber (blind well). The lower well (0.2 ml), separated by a polycarbonate membrane (Nucleopore Corp.), contained HBSS or 3×10^-8 M LTB4 in the presence or absence of test compound. Following a 40-90 minute incubation at 37° C. in 5% CO2 -95% air, cells from the lower well were lysed and nuclei counted in a Model S-Plus-IV Coulter Counter. The number of neutrophils migrating into the lower chamber in the absence of chemoattractant was subtracted from the number of cells migrating in the presence of a chemoattractant. Inhibition of chemotaxis by test compounds was expressed as percent inhibition relative to uninhibited control.

LTB4 Receptor = molecular target: T1, LTB4 Receptor (Homo sapiens, UniProt Q15722); assay: LTB4 Receptor Binding Assay; details: human neutrophils, 0.6×10^-9 M (3H)LTB4, 0° C., 45 minutes
T1 construct: Neutrophils were purified from venous blood of normal human donors; endogenous in cells; host or cells: human neutrophils from venous blood of normal donors (purity >95%)
Procedure: as §1, with “1968).” for “1968). The purity of isolated neutrophils was >95%.”
Neutrophils (4- 6×10^6) in 1 ml Hanks' balanced salt solution (HBSS) containing 10 mM HEPES buffer, pH 7.4 and 20 mM nordihydroguaiaretic acid were incubated with 0.6×10^-9 M (^3 H) LTB4 in the presence or absence of test compounds. The incubation was carried out at 0° C. for 45 minutes and terminated by adding 5 ml of ice-cold HBSS followed by rapid filtration of the incubation mixture under vacuum through GF/C glass fiber filters. The filters were further washed with 10 ml HBSS and radioactivity was determined. Specific binding was defined as the difference between total binding and nonspecific binding which was not displaced by 10^-7 M unlabeled LTB4. All data refer to specific binding.

T1 sequence (Q15722 whole entry): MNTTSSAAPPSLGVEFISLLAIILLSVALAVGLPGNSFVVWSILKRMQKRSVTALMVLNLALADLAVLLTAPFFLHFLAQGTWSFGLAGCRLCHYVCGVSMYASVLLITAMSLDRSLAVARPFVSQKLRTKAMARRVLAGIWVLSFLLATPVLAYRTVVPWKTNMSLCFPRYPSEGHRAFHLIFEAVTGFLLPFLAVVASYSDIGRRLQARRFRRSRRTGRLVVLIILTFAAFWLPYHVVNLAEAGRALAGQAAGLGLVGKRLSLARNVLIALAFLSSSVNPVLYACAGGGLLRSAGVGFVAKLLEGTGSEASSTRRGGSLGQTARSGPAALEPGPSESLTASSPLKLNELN

Structure (SMILES) | pIC50 [1] | pIC50 (LTB4 Receptor)
CCCc1c(OCCCOc2ccc(C(C)=O)c(OC)c2CCC)ccc2c1OC(C(=O)O)CC2 (centres unmarked) [Example 1(b), 7-[3-(4-acetyl-3-methoxy-2-propylphenoxy)propoxy]-3,4-dihydro-8-propyl-2H-1-benzopyran-2-carboxylic acid, reference compound] | 5.98 | –
CCCc1c(OCCCOc2ccc(-c3cscn3)c(OC)c2CC2CC2)ccc2c1OC(C(=O)NS(=O)(=O)c1ccccc1)CC2 (centres unmarked) [Example 9, Benzo sulfonimide of 7-[3-[2-(Cyclopropylmethyl)-3-methoxy-4-(4-thiazolyl)phenoxy]propoxy]-3,4-dihydro-8-propyl-2H-1-benzopyran-2-carboxylic acid] | 7.28 | 8.26
CCCc1c(OCCCOc2ccc(-c3cscn3)c(OC)c2CC2CC2)ccc2c1OC(CCC(=O)NS(=O)(=O)c1ccccc1)CC2 (centres unmarked) [Example 15, Benzo sulfonimide of 3,4-Dihydro-7-[3-[3-methoxy-2-cycloproplymethyl-4-(4-thiazolyl)phenoxy]propoxy]-8-propyl-2H-1-benzopyran-2-propionic acid] | 7.18 | 8.37
